# How the values were obtained:
# Histamine H4 receptor [1] = biological target: Histamine H4 receptor (Homo sapiens, UniProt Q9H3N8); settings: HEK293
# [2] = biological target: Histamine H4 receptor (Rattus norvegicus) (UniProt Q91ZY1); experiment: Agonist activity at rat histamine H4 receptor expressed in HEK293 cells coexpressing Gqi5 protein assessed as calcium flux by FLIPR assay relative to histamine; type: functional, cell-based
# Histamine H4 receptor [3] = biological target: Histamine H4 receptor (Rattus norvegicus, UniProt Q91ZY1); experiment: Agonist activity at rat histamine H4 receptor expressed in HEK293 cells coexpressing Gqi5 protein assessed as calcium flux by FLIPR assay; type: functional, cell-based
# Sequence of Histamine H4 receptor (Rattus norvegicus, UniProt Q91ZY1) (Q91ZY1 whole entry): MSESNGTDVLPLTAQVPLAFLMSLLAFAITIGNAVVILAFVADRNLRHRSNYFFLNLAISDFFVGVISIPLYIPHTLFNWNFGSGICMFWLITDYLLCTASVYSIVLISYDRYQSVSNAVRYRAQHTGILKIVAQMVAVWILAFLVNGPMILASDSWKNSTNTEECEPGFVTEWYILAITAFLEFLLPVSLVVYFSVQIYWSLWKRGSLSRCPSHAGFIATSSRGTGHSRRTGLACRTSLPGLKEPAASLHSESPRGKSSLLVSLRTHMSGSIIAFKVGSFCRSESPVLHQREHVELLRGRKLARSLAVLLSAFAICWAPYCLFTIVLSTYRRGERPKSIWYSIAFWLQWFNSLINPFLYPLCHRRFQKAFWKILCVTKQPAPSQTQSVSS
# Sequence of Histamine H4 receptor (Homo sapiens, UniProt Q9H3N8) (Q9H3N8 whole entry): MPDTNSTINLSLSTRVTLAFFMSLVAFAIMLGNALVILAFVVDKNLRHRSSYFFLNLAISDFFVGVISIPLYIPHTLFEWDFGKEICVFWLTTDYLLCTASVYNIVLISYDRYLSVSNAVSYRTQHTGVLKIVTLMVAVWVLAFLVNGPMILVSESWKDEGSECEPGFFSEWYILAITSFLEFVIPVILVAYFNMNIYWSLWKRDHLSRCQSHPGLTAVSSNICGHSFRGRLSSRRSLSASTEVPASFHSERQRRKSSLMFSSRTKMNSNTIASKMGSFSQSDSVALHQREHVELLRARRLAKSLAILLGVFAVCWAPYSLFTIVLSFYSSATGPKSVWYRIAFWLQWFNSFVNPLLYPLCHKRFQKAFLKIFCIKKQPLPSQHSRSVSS
# Sequence of Histamine H4 receptor (Rattus norvegicus) (Q91ZY1 whole entry): as the sequence (Q91ZY1 whole entry) above
Compound,pKb (Histamine H4 receptor [1]),Efficacy [2],EC50 (Histamine H4 receptor [3])
CN1CCN(c2cc(-c3cccnc3)nc(N)n2)CC1,7.3,70%,209 nM
CN1CCN(c2nc(N)ncc2-c2ccccc2)CC1,5.32,72%,8320 nM
CN1CCN(c2cc(N3CCN(C)CC3)nc(N)n2)CC1,6.84,68%,1350 nM
Cc1ccccc1-c1cc(N2CCN(C)CC2)nc(N)n1,8.07,60%,178 nM
CN1CCN(c2cc(-c3cn[nH]c3)nc(N)n2)CC1,8.38,53%,1820 nM
CN1CCN(c2cc(C(C)(C)C)nc(N)n2)CC1,8.35,64%,67.6 nM
CN1CCN(c2cc(-c3ccc(Cl)cc3)nc(N)n2)CC1,8.32,74%,37.2 nM
CN1CCN(c2cc(Sc3ccccc3)nc(N)n2)CC1,5.99,68%,8910 nM
CN(C)CCCN(C)c1cc(C(C)(C)C)nc(N)n1,5.13,40%,9770 nM
CN1CCN(c2cc(I)nc(N)n2)CC1,6.33,67%,2040 nM
CN1CCC(c2cc(C(C)(C)C)nc(N)n2)CC1,5.87,55%,3630 nM
CCN(CC)c1cc(N2CCN(C)CC2)nc(N)n1,7.55,90%,355 nM
CN1CCN(c2cc(C(C)(C)C)nc(O)n2)CC1,4.39,35%,22900 nM
COc1c(-c2ccc(C#N)cc2)nc(N)nc1N1CCN(C)CC1,6.04,51%,5130 nM
CC(C)(C)c1cc(N2CCNCC2)nc(-n2cccc2)n1,6.75,84%,2290 nM
CN1CCN(c2cc(-c3ccncc3)nc(N)n2)CC1,7.38,63%,229 nM
CN1CCN(c2cc(Nc3ccccc3)nc(N)n2)CC1,8.18,81%,117 nM
Cc1ccc(-c2cc(N3CCN(C)CC3)nc(N)n2)cc1,8.06,81%,56.2 nM
COc1ccccc1-c1cc(N2CCN(C)CC2)nc(N)n1,8.86,68%,43.7 nM
Cc1cccc(-c2cc(N3CCN(C)CC3)nc(N)n2)c1,8.62,59%,42.7 nM
COc1cc(N2CCN(C)CC2)nc(N)n1,5.53,55%,10500 nM

Compound,pKb (Histamine H4 receptor [1]),Efficacy [2],EC50 (Histamine H4 receptor [3])
CN1CCN(c2cc(N(C)C)nc(N)n2)CC1,6.85,59%,3020 nM
Cc1cnc(N)nc1N1CCN(C)CC1,7.07,81%,66.1 nM
Cc1c(-c2ccc(C#N)cc2)nc(N)nc1N1CCN(C)CC1,7.36,63%,58.9 nM
CN1CCN(c2nc(N)nc(C(C)(C)C)n2)CC1,7.04,70%,251 nM
CN1CCN(c2cc(-c3ccccc3C#N)nc(N)n2)CC1,6.75,73%,1200 nM
COc1ncc(-c2cc(N3CCN(C)CC3)nc(N)n2)cn1,5.91,53%,3240 nM
CN1CCN(c2cc(C(C)(C)C)ncn2)CC1,7.07,79%,933 nM
COc1cccc(OC)c1-c1cc(N2CCN(C)CC2)nc(N)n1,6.81,81%,195 nM
CN1CCN(c2cc(-c3ccc4ccccc4c3)nc(N)n2)CC1,7.02,41%,174 nM
CN1CCN(c2cc(C34CC5CC(CC(C5)C3)C4)nc(N)n2)CC1,7.59,61%,316 nM
CN1CCN(c2nc(N)cc(C(C)(C)C)n2)CC1,5.82,82%,7940 nM
CN1CCN(c2cc(N3CCCC3)nc(N)n2)CC1,8.41,79%,69.2 nM
CN(C)CCOc1cc(C(C)(C)C)nc(N)n1,7.02,67%,302 nM
CN1CCN(c2cc(N3CCOCC3)nc(N)n2)CC1,7.16,87%,339 nM
CC1CCN(c2cc(C(C)(C)C)nc(N)n2)CC1,5.2,64%,23400 nM
COc1cnc(N)nc1N1CCN(C)CC1,6.9,65%,631 nM
CCN1CCN(c2cc(C(C)(C)C)nc(N)n2)CC1,7.86,55%,245 nM
CN1CCN(c2cc(-c3cncnc3)nc(N)n2)CC1,5.84,61%,7940 nM
CN1CCN(c2cc(N3CCC(N(C)C)C3)nc(N)n2)CC1 (configuration not stated),5.76,62%,3630 nM
CN1CCN(c2cc(Cl)nc(N)n2)CC1,4.75,65%,17000 nM
CN1CCN(c2cc(-c3cccc(Cl)c3)nc(N)n2)CC1,8.24,50%,31.6 nM

Compound,pKb (Histamine H4 receptor [1]),Efficacy [2],EC50 (Histamine H4 receptor [3])
CN1CCN(c2cc(N3CCNC3=O)nc(N)n2)CC1,5.38,27%,12300 nM
COc1ccc(-c2cc(N3CCN(C)CC3)nc(N)n2)cc1,8.08,71%,115 nM
COc1cccc(-c2cc(N3CCN(C)CC3)nc(N)n2)c1,8.12,69%,102 nM
COc1ccncc1-c1cc(N2CCN(C)CC2)nc(N)n1,7.39,76%,234 nM
Cc1cc(N2CCN(C)CC2)nc(N)n1,7.2,77%,363 nM
CNc1nc(N2CCN(C)CC2)cc(C(C)(C)C)n1,6.08,46%,5130 nM
CN(C)CCN(C)c1cc(C(C)(C)C)nc(N)n1,5.71,55%,1120 nM
CN1CCN(c2cc(N3CCCCC3)nc(N)n2)CC1,8.05,73%,46.8 nM
CN1CCN(c2cc(-c3cccc(I)c3)nc(N)n2)CC1,8.27,61%,891 nM
CNc1cc(N2CCN(C)CC2)nc(N)n1,8.28,93%,490 nM
CN1CCN(c2cc(-c3ccc(F)nc3F)nc(N)n2)CC1,8.27,82%,15.5 nM
CN(C)CCN1CCN(c2cc(C(C)(C)C)nc(N)n2)CC1,6.44,66%,2400 nM
CN1CCN(c2cc(O)nc(N)n2)CC1,4.44,92%,1480 nM
CN1CCN(c2cc(N)nc(N)n2)CC1,6.37,71%,219 nM
CN(C)CCNc1cc(C(C)(C)C)nc(N)n1,6.91,39%,1780 nM
CN1CCN(c2cc(-c3cnn(C)c3)nc(N)n2)CC1,7.31,78%,219 nM
CN1CCN(c2cc(N)nc(-c3ccc(C#N)cc3)c2)CC1,6.86,84%,1860 nM
CN1CCN(c2cc(N)nc(C(C)(C)C)n2)CC1,6.28,50%,4680 nM
CN1CCN(c2cc(-c3ccccc3)nc(N)n2)CC1,8.39,,39.8 nM

# Reference: ChEMBL document CHEMBL1140148, “Structure-activity studies on a series of a 2-aminopyrimidine-containing histamine H4 receptor ligands” (J Med Chem, 2008)
